# Experimental data reported in patent US20220364184A1, “COMPOSITIONS AND METHODS FOR TREATMENT OF A POOR PROGNOSIS SUBTYPE OF COLORECTAL CANCER” (DANA-FARBER CANCER INSTITUTE, INC., priority 2019, published 2022).
# “Also recorded” adds a separate entry of the source.
# Columns and labels:
# RKO cells [1] = test: Live-cell calcium imaging of spontaneous calcium transients (GCaMP5); type: cell-based, human; conditions: for spontaneous calcium transients: FIG. 4C; for propagation of calcium transients: FIG. 5E
# Description: 2 mg/ml neomycin was added to the cell culture medium 48 hrs after transfection to generate cell lines with stable GCaMP5 expression and removed one week prior to the initiation of experiment. Calcium transients were captured by live-cell imaging using a confocal microscope. Time lapse imaging was setup so that an image was captured every 0.5 s for 30 minutes, with an exposure time of 0.5 s. Calcium measurements were normalized to background fluorescence and the relative change in calcium (F(t)) over time was calculated by the formula: […]
# where F0 was defined as the average intensity of the 20% lowest grey values in a region of interest (ROI), F was defined as the normalized grey values of ROI in time point t. Global synchronicity was calculated by cross correlation method in FluoroSNNAP (seas.upenn.edu/˜molneuro/fluorosnnap.html).
# RKO cells [2] = test: Wound healing (scratch) assay with calcium wave imaging; type: cell-based, human; conditions: for display of primary and secondary calcium waves after scratching: FIG. 19E-F, verapamil 500 nM
# Description: Wild-type or BCL9 knockout cells were grown in 6-well plates or Nunc™ Glass Bottom Dishes (150680, ThermoFisher®) for 24 hrs until cells reached 90% confluency. A 1 ml pipette tip was used to scratch the monolayer of cells across the center of each well. The cells were imaged at 0 and 24 hours after scratching. To investigate the effect of BCL9 on calcium waves (FIG. 5H), cells were cultured in glass-bottomed 96-well plates for 24 hrs until they reached 90% confluency. […] A 200 μl pipette tip was used to scratch the cell monolayer from the top left to the bottom right corner of the well. At various times after the scratch was made, cells were fixed with 4% paraformaldehyde for 15 minutes at room temperature. Immunofluorescence was subsequently used to identify the location of BCL9 (see immunofluorescence method section for more detail). The wound edge in the center of the well was defined as “adjacent” and the area in the top right corner was defined as “distance” (FIG. 4H).
# To trace the calcium transient in real time, GCaMP5G (#31788, Addgene®) was transfected into wild-type or BCL9 knockout RKO and Colo320 cell lines. 2 mg/ml neomycin was added to the cell culture medium 48 hrs after transfection to generate cell lines with stable GCaMP5 expression and removed one week prior to the initiation of experiment. Calcium transients were captured by live-cell imaging using a confocal microscope. […] Calcium measurements were normalized to background fluorescence and the relative change in calcium (F(t)) over time was calculated by the formula: […]
# where F0 was defined as the average intensity of the 20% lowest grey values in a region of interest (ROI), F was defined as the normalized grey values of ROI in time point t. Global synchronicity was calculated by cross correlation method in FluoroSNNAP (seas.upenn.edu/˜molneuro/fluorosnnap.html). The frequency spectrum was calculated by fast Fourier transform (Uhlen, P. (2004). Sci. STKE 2004, p 115), the time difference between each sample is 0.5 s.
# [3] = tested on: RGS4, CACNA2D1, ADRB1 mRNA; test: mRNA expression by RNA-seq / qRT-PCR; type: cell-based, human; conditions: both wild-type and BCL9 knockout RKO cells, qRT-PCR, FIG. 17A
# Description: RNA was extracted from wild type and BCL9 knockout RKO cells with or without Poly I:C treatment (1 μg/ml) and subsequently purified using the TURBO DNA-free™ Kit (AM1907, invitrogen) to remove any residual DNA. An RNA library was prepared using the ribosome RNA removing method and sequenced with a 150 bp paired-end protocol in the Center for Cancer Computational Biology at the Dana Farber Cancer Institute (PRJNA554110). After quality control (QC) analysis was performed using fastQC, the first 10 bases were trimmed for each read. STAR software was used to map the readings to the human genome (hg19) and duplicates were removed using Picard. HTSeq was used to evaluate the gene expression levels by the count number for each gene and were subsequently annotated using the Ensemble database. Gene differential analysis was then applied to the expression profiling table using R package edgeR. For further analysis, the difference in exon usage between different conditions was calculated and R package DEXSeq was used to find differences between them.
# [4] = tested on: RKO, Colo320, SW620, LS174T, DLD-1 cells; test: Cell viability assay of CRC cell lines; conditions: Colo320, and SW620 more than LS174T or DLD-1 cells, increased concentrations, FIG. 20C
# RKO cells [5] = test: In vivo mouse xenograft model (RKO-luciferase, intraperitoneal)
# Description: A total of 4×10^6 wild-type or BCL9 knockout RKO cells stably transduced with a reporter expressing Luciferase were injected intraperitoneally into CB17.Cg-PrkdcscidLystbg-J/Crl (Beige) mice (n=7 per group), and tumor burden was monitored by whole-body imaging using Xenogen system every week for 4 weeks, starting one day after injection of cells. After last imaging, all mice were euthanized and all tumor nodules identified in the peritoneal cavity were dissected and processed for histological and immunohistochemical analysis. To quantify β-catenin and Ki-67 stains serial consecutive sections were scanned using Vectra 2 Intelligent Slide Analysis system; percentage of positive cells (Ki-67, CD163, CD31, or αSMA) or areas (β-catenin) were assessed using inform Cell Analysis software (PerkinElmer®). P-values were calculated using unpaired Student's t-test. Propranolol hydrochloride (Millapore-Sigma®) was added to the drinking water at a concentration of 0.5 g/L on the injection day. Drug solution was renewed every 2 days.
# TMA sections (from Oncology Pathology, Dana Farber Cancer Institute) were pre-heated at 65 degrees for 20 mins and then deparaffined by performing the following washing steps: xylene 3×5 mins, 100% ethanol 5 mins, 95% ethanol 5 mins, 75% ethanol 5 mins, 50% ethanol 5 mins, 25% ethanol 5 mins, and rinsed by cold water. Sections were subsequently heated in a microwave with antigen retrieval buffer (10 mM Tris Base, 1 mM EDTA Solution, 0.05% Tween 20, pH 9.0). Sections were washed twice with TBS plus 0.5% Triton X-100 (v/v) and blocked with 5% BSA for 1 hr at room temperature. Sections were incubated overnight with the following antibodies at 4 degrees: BCL9 (ab37305, Abcam®), FAP (AF3715, R&D), β-catenin (610154, BD Transduction Laboratories), SYP (PA0299, Lecia), PDGFB (ab23914, Abcam®), C3 (HPA003563, Millapore-Sigma®), RGS4 (sc-398348, Santa Cruz®), CD163 (182422, Abcam®), CD31 (77699, Cell Signaling®), αSMA (19245, Cell Signaling®), or Axin2 (#2151, Cell Signaling®). The sections were washed three times before incubation with secondary antibody for 2 hours at room temperature. The sections were then washed three times before signal amplification with HRP polymer or fluorescence. ImageJ2 software was used to carry out semi-quantitative analysis of the staining intensities, which ranged from 0 (negative) to 3 (strong staining). Subsequently the H-score was calculated using the following formula;
# B-cell lymphoma 9 (BCL9) = biological target: T1, B-cell lymphoma 9 (BCL9) (human, UniProt O00512 1-1426); test: co-IP with anti-β-catenin antibody, untreated and poly I:C treated Colo320 cells
# T1 construct: Endogenous protein in nuclear lysates of human CRC cell lines (RKO, Colo320, SW620, LS174T, DLD-1)
# T1 sequence: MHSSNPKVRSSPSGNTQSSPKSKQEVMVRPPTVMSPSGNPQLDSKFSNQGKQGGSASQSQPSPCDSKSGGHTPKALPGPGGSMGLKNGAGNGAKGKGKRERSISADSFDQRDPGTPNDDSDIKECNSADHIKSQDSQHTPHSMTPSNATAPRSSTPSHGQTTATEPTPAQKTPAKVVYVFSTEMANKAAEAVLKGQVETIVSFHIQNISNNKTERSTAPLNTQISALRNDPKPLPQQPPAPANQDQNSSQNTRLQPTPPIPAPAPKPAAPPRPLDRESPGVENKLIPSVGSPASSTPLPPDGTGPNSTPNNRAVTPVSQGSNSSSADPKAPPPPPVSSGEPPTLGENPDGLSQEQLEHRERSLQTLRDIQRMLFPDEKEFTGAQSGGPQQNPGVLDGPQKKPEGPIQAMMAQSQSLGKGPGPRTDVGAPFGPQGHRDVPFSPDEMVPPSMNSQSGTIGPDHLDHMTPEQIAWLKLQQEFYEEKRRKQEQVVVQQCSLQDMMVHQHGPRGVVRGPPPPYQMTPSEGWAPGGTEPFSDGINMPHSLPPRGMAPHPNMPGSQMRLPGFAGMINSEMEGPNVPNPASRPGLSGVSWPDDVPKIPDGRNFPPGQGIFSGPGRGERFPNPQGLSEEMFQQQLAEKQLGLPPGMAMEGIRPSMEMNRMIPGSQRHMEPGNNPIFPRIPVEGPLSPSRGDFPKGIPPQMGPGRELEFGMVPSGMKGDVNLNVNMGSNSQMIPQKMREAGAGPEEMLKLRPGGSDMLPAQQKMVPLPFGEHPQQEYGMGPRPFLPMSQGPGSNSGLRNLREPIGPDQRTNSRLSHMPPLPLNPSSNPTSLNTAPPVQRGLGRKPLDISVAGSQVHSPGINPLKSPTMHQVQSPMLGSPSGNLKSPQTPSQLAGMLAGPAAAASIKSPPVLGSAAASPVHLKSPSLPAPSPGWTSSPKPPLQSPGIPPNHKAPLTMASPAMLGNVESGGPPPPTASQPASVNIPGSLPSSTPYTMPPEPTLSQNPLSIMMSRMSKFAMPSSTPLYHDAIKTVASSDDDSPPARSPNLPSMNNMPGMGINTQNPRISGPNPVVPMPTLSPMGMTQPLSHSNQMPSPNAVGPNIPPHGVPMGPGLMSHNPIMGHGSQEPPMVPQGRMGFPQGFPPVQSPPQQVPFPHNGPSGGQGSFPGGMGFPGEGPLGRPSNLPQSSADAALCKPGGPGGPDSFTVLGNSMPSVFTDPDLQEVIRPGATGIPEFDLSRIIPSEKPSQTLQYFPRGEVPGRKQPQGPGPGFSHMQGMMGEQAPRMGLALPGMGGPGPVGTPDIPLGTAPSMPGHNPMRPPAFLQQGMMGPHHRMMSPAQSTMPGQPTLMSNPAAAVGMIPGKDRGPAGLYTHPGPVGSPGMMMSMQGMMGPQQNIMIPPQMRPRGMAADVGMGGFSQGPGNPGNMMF
molecule,measurement,setting,value
"O=C(O)CN(CCN(CC(=O)O)CC(=O)O)CC(=O)O [EDTA, ethylene diamine tetra-acetic acid]",spontaneous calcium transients,RKO cells [1]; RKO cells,disappeared
same,display of primary and secondary calcium waves after scratching,RKO cells [2],disappeared; also recorded: blocked
NCCc1ccc(O)c(O)c1 [dopamine],expression of RGS4 and CACNA2D1 mRNAs,[3],increased
"COc1ccc(CCN(C)CCCC(C#N)(c2ccc(OC)c(OC)c2)C(C)C)cc1OC (stereo not drawn) [verapamil, Benzeneacetonitrile, α-[3-[[2-(3,4-dimethoxyphenyl)ethyl]methylamino]propyl]-3,4-dimethoxy-α-(1-methylethyl)]",spontaneous calcium transients,RKO cells [1]; RKO cells,disappeared
same,display of primary and secondary calcium waves after scratching,RKO cells [2],disappeared; also recorded: blocked
same,viability of CRC cell lines,[4],significantly reduced
"CC(C)NCC(O)COc1cccc2ccccc12 (stereo not drawn) [propranolol, 2-propanol, 1-[(1-methylethyl)amino]-3-(1-naphthalenyloxy)]","amplitude, frequency, and synchronicity of spontaneous calcium waves","RKO cells [1]; RKO cells, FIG. 20B",reduced
same,calcium transient activation after scratching,RKO cells [2]; FIG. 5F,inhibited calcium transients only in a subset of cells; also recorded: very few of them were activated
same,number of endothelial cells within tumor microenvironment (CD31),"RKO cells [5]; RKO xenograft, FIG. 6H-I",marked reduction
same,number of mouse derived M2 macrophages within tumor microenvironment (CD163),"RKO cells [5]; RKO xenograft, FIG. 6H-I",marked reduction
same,number of myofibroblast cells within tumor microenvironment (αSMA),"RKO cells [5]; RKO xenograft, FIG. 6H-I",not
same,expression of Axin2 in xenograft tumors,RKO cells [5]; control vs treated groups,did not display differences
same,mice that had died with extensive tumor burden,"RKO cells [5]; three weeks after RKO cell injection, 0.5 g/L in drinking water, n=7",none
same,tumor burden (whole-body imaging),"RKO cells [5]; three weeks post tumor injection, 0.5 g/L in drinking water",disappeared in most
same,viability of CRC cell lines,[4],significantly reduced
CC(C)(C)NCC(O)c1cc(O)cc(O)c1 (stereo not drawn) [Terbutaline],propagation of calcium transients,RKO cells [1]; BCL9 knockout RKO cells,not
same,propagation of calcium transients,RKO cells [1]; wild-type RKO cells,induced
"β-catenin (other, UniProt P35222 2-781, looked up, Endogenous protein in cell lysates; co-IP with anti-β-catenin (9562L, Cell Signaling) or anti-BCL9 antibody; also called B-catenin) ATQADLMELDMAMEPDRKAAVSHWQQQSYLDSGIHSGATTTAPSLSGKGNPEEEDVDTSQVLYEWEQGFSQSFTQEQVADIDGQYAMTRAQRVRAAMFPETLDEGMQIPSTQFDAAHPTNVQRLAEPSQMLKHAVVNLINYQDDAELATRAIPELTKLLNDEDQVVVNKAAVMVHQLSKKEASRHAIMRSPQMVSAIVRTMQNTNDVETARCTAGTLHNLSHHREGLLAIFKSGGIPALVKMLGSPVDSVLFYAITTLHNLLLHQEGAKMAVRLAGGLQKMVALLNKTNVKFLAITTDCLQILAYGNQESKLIILASGGPQALVNIMRTYTYEKLLWTTSRVLKVLSVCSSNKPAIVEAGGMQALGLHLTDPSQRLVQNCLWTLRNLSDAATKQEGMEGLLGTLVQLLGSDDINVVTCAAGILSNLTCNNYKNKMMVCQVGGIEALVRTVLRAGDREDITEPAICALRHLTSRHQEAEMAQNAVRLHYGLPVVVKLLHPPSHWPLIKATVGLIRNLALCPANHAPLREQGAIPRLVQLLVRAHQDTQRRTSMGGTQQQFVEGVRMEEIVEGCTGALHILARDVHNRIVIRGLNTIPLFVQLLYSPIENIQRVAAGVLCELAQDKEAAEAIEAEGATAPLTELLHSRNEGVATYAAAVLFRMSEDKPQDYKKRLSVELTSSLFRTEPMAWNETADLGLDIGAQGEPLGYRQDDPSYRSFHSGGYGQDALGMDPMMEHEMGGHHPGADYPVDGLPDLGHAQDLMDGLPPGDSNQLAWFDTDL",binding result,B-cell lymphoma 9 (BCL9),binds
